Laboratory results taken from US7258999B2, “PTH responsive gene” (Wyeth, priority 2002, dated 2007).

Tests used:
[1] = system: PAIGB expression in ROS 17/2.8 cells; assay: Real time PCR of PAIGB expression in ROS 17/2.8 cells; format: cell-based, rat; details: 10 nM
Excerpt: Applicants performed multiplex real time PCR (TaqMan) analysis on previously DNAsed samples using gene specific probe and primers and 18S ribosomal RNA probe and primer sets purchased from Applied Biosystem. (Foster City, Calif.) The samples were DNAsed according to the protocol provided by Ambion (DNA-free kit). TaqMan probe and primers for PAIGB was identify using Primer Express computer program. The sequence for rat PAIGB TaqMan probe was 6FAM-5′[…] (SEQ ID NO: 16) forward and reverse primers were 5′[…] 3′ (SEQ ID NO:17) and 5′ […] 3′ (SEQ ID NO:18) respectively. The final concentrations for probes were 500 nM and 40 nM for PAIGB and 18S ribosomal RNA or GAPDH respectively. The concentrations of the primers were 500 nM for PAIGB forward and reversed primers while 18S primers were 10 and 20 nM for forward and reversed primer respectively or 40 nM for GAPDH primers. Standards for rat samples were made from rat tibia or brain RNA in the range of 250 ng to 0.1 ng, while standards for mouse specific TaqMan were made from mouse brain RNA and human standards from human brain RNA (Clonetech, Palo Alto, Calif.) spanning the same range of concentration. Primers and probes for mouse PAIGB were: forward 5′ […] 3′ (SEQ ID NO:19), reverse, 5′ […] (SEQ ID NO:21). Primers and probes for human PAIGB were: forward 5′ […] 3′ (SEQ ID NO:22), reverse 5′ […] 3′(SEQ ID NO: 24). The Taq-man analysis was done using ABI 7700 Sequence Detector under following conditions: 30 min at 48° C., 10 min at 95° C. and 40 cycles of 15 sec at 95° C. and 60 sec at 60° C. Analysis of real-time PCR analysis was performed using (Sequence Detector, Macintosh) program.
Five cell types were primarily used in our experiments. Rat osteoblast cell line (ROS 17/2.8) that expresses moderate levels of PTH receptor 1 (Rodan et al, Rev. Eukaryotic Gene Expression 1:85-98, 1991) were used to perform in vitro experiments. ROS cells were maintained under standard cell culture conditions: 10% heat inactivated FBS in Dulbecco's Modified Eagle Medium with Nutrient Mixture F-12 (DMEM/F12) media, 1% Penicillin/Streptomycin and 1% Glutamax. Mouse cell line C3H10T½ (ATCC# CCL226) as a representative of mouse osteoprogenitor cell line were maintained in Eagles Minimal Essential Media (EMEM) with the addition of 10% heat inactivated FBS and 1% Penicillin/Streptomycin and 1% Glutamax. UMR106 rat osteoblastic cells (ATCC# CRL1661) were cultured in Dulbecco's Modified Eagle Medium (DMEM) supplemented with 10% heat inactivated FBS, 1% Penicillin/Streptomycin and 1% Glutamax. The U2OS human osteoblastic cells (ATCC# HTB96) were cultured in McCoy's 5A Medium Modified supplemented with 10% FBS, 1% Penicillin/Streptomycin and 1% Glutamax. The human HOB-03-CE6 cell line (Bodine, V. N. P., et. al., J. Cell. Biochem., 65: 368-387,1997) was maintained in phenol red free DMEM/F12 media supplemented with 10% heat inactivated FBS and 1% Penicillin/Streptomycin and 1% Glutamax.
ROS 17/2.8 rat osteoblast cell line that express PTH receptor (˜80000 receptors/cell) were treated with increased doses of PTH: 1 nM, 10 nM, 100 nM and 1000 nM. Real time PCR using rat specific Taq-man probes and primers were used to examine the changes in PAIGB expression with PTH treatment.
Time course of PTH induction of PAIGB expression was examined. ROS 17/2.8_cells were treated with 10 nM PTH and RNA was harvested at 1, 2, 4, 6, 8 and 24 hours post treatment.

PAIGB expression = assay: Real time PCR of PAIGB in brain, kidney and heart after intermittent PTH; format: in vivo, rat; details: intermittent injection
Excerpt: Applicants performed multiplex real time PCR (TaqMan) analysis on previously DNAsed samples using gene specific probe and primers and 18S ribosomal RNA probe and primer sets purchased from Applied Biosystem. (Foster City, Calif.) The samples were DNAsed according to the protocol provided by Ambion (DNA-free kit). TaqMan probe and primers for PAIGB was identify using Primer Express computer program. The sequence for rat PAIGB TaqMan probe was 6FAM-5′[…] (SEQ ID NO: 16) forward and reverse primers were 5′[…] 3′ (SEQ ID NO:17) and 5′ […] 3′ (SEQ ID NO:18) respectively. The final concentrations for probes were 500 nM and 40 nM for PAIGB and 18S ribosomal RNA or GAPDH respectively. The concentrations of the primers were 500 nM for PAIGB forward and reversed primers while 18S primers were 10 and 20 nM for forward and reversed primer respectively or 40 nM for GAPDH primers. Standards for rat samples were made from rat tibia or brain RNA in the range of 250 ng to 0.1 ng, while standards for mouse specific TaqMan were made from mouse brain RNA and human standards from human brain RNA (Clonetech, Palo Alto, Calif.) spanning the same range of concentration. Primers and probes for mouse PAIGB were: forward 5′ […] 3′ (SEQ ID NO:19), reverse, 5′ […] 3′ (SEQ ID NO:20) anti-sense and probe 5′ 6FAM-[…] (SEQ ID NO:21). Primers and probes for human PAIGB were: forward 5′ […] 3′ (SEQ ID NO:22), reverse 5′ […] […]

With human PTH (1-34) the “PAIGB message with increasing concentrations” value ([1]; 1 nM, 100 nM and 1000 nM) was “dose-dependent increase”, the “maximal increase of PAIGB expression” value ([1]; 4 hours time point) was 2.66+/−0.3 and the “effect on PAIGB expression 8 hours post treatment” value ([1]; 8 hours) was “completely abolished”. For the same substance, the “induction of PAIGB expression” value ([1]; data not shown) was 6 fold and the “changes in PAIGB expression in brain, kidney and heart” value (PAIGB expression) was “did not produce any changes”.
